In patent US20260042764A1, “COMPOSITIONS AND METHODS FOR INHIBITION OF KRAS” (TheRas, Inc., priority 2022, published 2026):

Tests used:
[1] = biological target: T1, Avi-KRAS G12D (1-169) GppNHp/RAF1 RBD-3xFLAG (52-151) (Homo sapiens, UniProt P01116, G12D); test: Raf1-KRAS G12D-GppNHP disruption HTRF assay (Biological Example 1); assay type: binding
T1 construct: Avi-KRAS G12D (1-169)
Outline: (§1)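 First, protein mix in Tris pH 7.5 buffer with NaCl, MgCl2, BSA, Tween and 10% DMSO is incubated 1 h at room temperature. Next, reagent mix is added and incubated a further 1 h at room temperature. Finally, HTRF is read and activity normalized to DMSO.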

[2] = biological target: T2, Avi-KRAS G12R (1-169) GppNHp/RAF1 RBD-3xFLAG (52-151) (Homo sapiens, UniProt P01116, G12R); test: Raf1-KRAS G12R-GppNHP disruption HTRF assay (Biological Example 1); assay type: binding
T2 construct: Avi-KRAS G12R (1-169)
T2 sequence (P01116 1-169 isoform P01116-2 G12R): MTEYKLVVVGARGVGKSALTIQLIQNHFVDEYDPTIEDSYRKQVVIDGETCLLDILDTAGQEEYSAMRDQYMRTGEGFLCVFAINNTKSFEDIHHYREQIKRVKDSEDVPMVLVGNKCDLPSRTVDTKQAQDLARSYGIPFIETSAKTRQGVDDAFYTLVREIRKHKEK
Outline: as §1

[3] = biological target: T3, Avi-KRAS G12V (1-169) GppNHp/RAF1 RBD-3xFLAG (52-151) (Homo sapiens, UniProt P01116, G12V); test: Raf1-KRAS G12V-GppNHP disruption HTRF assay (Biological Example 1); assay type: binding
T3 construct: Avi-KRAS G12V (1-169)
T3 sequence (P01116 1-169 isoform P01116-2 G12V): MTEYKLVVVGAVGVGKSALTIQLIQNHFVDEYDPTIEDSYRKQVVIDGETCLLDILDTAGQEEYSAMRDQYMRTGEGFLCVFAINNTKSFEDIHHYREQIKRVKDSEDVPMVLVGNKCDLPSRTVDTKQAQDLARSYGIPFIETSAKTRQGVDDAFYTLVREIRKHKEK
Outline: as §1

[4] = biological target: T4, Avi-KRAS WT (1-169) GppNHp/RAF1 RBD-3xFLAG (52-151) (Homo sapiens, UniProt P01116); test: Raf1-KRAS WT-GppNHP disruption HTRF assay (Biological Example 1); assay type: binding
T4 construct: Avi-KRAS WT (1-169)
T4 sequence (P01116 1-169 isoform P01116-2): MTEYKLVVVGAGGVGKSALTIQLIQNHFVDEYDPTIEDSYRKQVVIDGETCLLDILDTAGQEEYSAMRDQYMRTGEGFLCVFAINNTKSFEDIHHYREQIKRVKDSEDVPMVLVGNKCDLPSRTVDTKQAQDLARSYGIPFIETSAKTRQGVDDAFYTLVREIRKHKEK
Outline: as §1

GP2d cells (KRAS G12D) = test: Cell-based pERK HTRF assay in GP2d cell (Biological Example 2); settings: GP2d, GP2d (KRAS G12D) cells, pERK HTRF
Outline: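 GP2d (KRAS G12D) cells were plated in DMEM/10% FBS and treated the next day for 60 min with compounds. Dosing used 9-point half-log series starting at 1 μM or 100 nM in 0.25% DMSO. Lysates were read by HTRF pERK (d2/Eu cryptate antibodies) after 4–24 h at room temperature, with excitation at 320 nm and emission at 615 nm.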

SW620 cells (KRAS G12V) = test: Cell-based pERK HTRF assay in SW620 cell (Biological Example 4); settings: Homo sapiens, SW-620, SW620 (KRAS G12V) cells, pERK HTRF
Protocol: A pERK assay (Perkin Elmer) was used to determine the effectiveness of compounds in disrupting KRAS G12V protein/effector signaling in cells.
On Day 1, cells (SW620) were seeded into 96-well plates at 3×10^4 cells/well in 80 μL complete growth media (RPMI, 10% FBS).
On Day 2, cells were treated with compounds at 0.25% DMSO. The source plate was created with compounds diluted in media at 5-fold the final assay concentration. The compounds were run in a 9-point concentration curve starting at 1 μM, with a half-log dilution between concentrations. Twenty μL was transferred onto the cell plates (final volume in wells was 100 μL). Plates were harvested after 4 h incubation by aspirating media and adding kit-supplied 1x supplemented lysis buffer to all wells (50 μL per well). Plates were then placed on a plate shaker and incubated at 850 rpm for an additional 30 min.
Antibody mixture solution was prepared by diluting aliquoted d2 and Eu Cryptate antibodies 1:20 in kit supplied detection buffer and mixing the diluted antibodies solutions (1:1 v:v).
Samples were homogenized by pipetting up and down and then transferred (16 μL of cell lysates) from the 96-well cell culture plate to two wells of the HTRF 384-well detection plate containing the antibody solution. Plates were centrifuged (524 g for Imin) and allowed to incubate between 4 and 24 h at room temperature. […] Plates were centrifuged again (524 g for 1 min), then analyzed on the En Vision plate reader using the following settings: Excitation 320 nm, Bandwidth 75 nm; Emission 615 nm, Bandwidth 85 nm; Gain 100%; Flashes 100; Lag 60 μs.

[5] = KRAS G12D, GppNHp-loaded, class symbols
[6] = KRAS G12R, GppNHp-loaded, class symbols
[7] = KRAS G12V, GppNHp-loaded, class symbols
[8] = KRAS WT, GppNHp-loaded, class symbols

T1 sequence (P01116 1-169 isoform P01116-2 G12D): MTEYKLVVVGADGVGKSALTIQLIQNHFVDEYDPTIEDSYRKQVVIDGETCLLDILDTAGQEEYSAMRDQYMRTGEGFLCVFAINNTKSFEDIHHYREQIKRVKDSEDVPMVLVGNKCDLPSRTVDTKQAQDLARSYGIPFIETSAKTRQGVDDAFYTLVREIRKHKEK

| SMILES | IC50 ([1]; KRAS G12D-GppNHp/RAF1 RBD HTRF) [nM] | IC50 ([2]; KRAS G12R-GppNHp/RAF1 RBD HTRF) [nM] | IC50 ([3]; KRAS G12V-GppNHp/RAF1 RBD HTRF) [nM] | IC50 ([4]; KRAS WT-GppNHp/RAF1 RBD HTRF) [nM] | IC50 (GP2d cells (KRAS G12D)) [nM] | IC50 (SW620 cells (KRAS G12V)) [nM] | IC50 [1, 5] [nM] | IC50 [2, 6] [nM] | IC50 [3, 7] [nM] | IC50 [4, 8] [nM] | IC50 (GP2d cells (KRAS G12D); class symbols) [nM] | IC50 (SW620 cells (KRAS G12V); class symbols) [nM] |
| --- | --- | --- | --- | --- | --- | --- | --- | --- | --- | --- | --- | --- |
| CCN(c1nc(OC[C@@]23CCCN2C[C@H](F)C3)nc2c(F)c(-c3ccc(F)c4sc(N)c(C#N)c34)c(C(F)(F)F)cc12)[C@H]1CCN(C(=O)OC(C)C)C1 (atropisomer, axis not shown) [Compound 556] | < 100 | < 100 | 100 to 1000 | 100 to 1000 | < 100 | < 100 | – | – | – | – | – | – |
| CCN(c1nc(OC[C@@]23CCCN2C[C@H](F)C3)nc2c(F)c(-c3ccc(F)c4sc(N)c(C#N)c34)c(C(F)(F)F)cc12)[C@H]1C[C@@H](C)N(C(=O)OC)C1 (atropisomer, axis not shown) [Compound 557] | < 100 | < 100 | 100 to 1000 | 100 to 1000 | < 100 | < 100 | – | – | – | – | – | – |
| CCN(c1nc(OC[C@@]23CCCN2C[C@H](F)C3)nc2c(F)c(-c3ccc(F)c4sc(N)c(C#N)c34)c(C(F)(F)F)cc12)[C@H]1C[C@@H](C)N(C(=O)N(C)C)C1 (atropisomer, axis not shown) [Compound 558] | 100 to 1000 | 100 to 1000 | 100 to 1000 | 100 to 1000 | < 100 | < 100 | – | – | – | – | – | – |
| CCN(c1nc(OC[C@@]23CCCN2C[C@H](F)C3)nc2c(F)c(-c3ccc(F)c4sc(N)c(C#N)c34)c(C(F)(F)F)cc12)[C@H]1CCN(C(=O)C2(F)CC2)C1 (atropisomer, axis not shown) [Compound 559] | < 100 | < 100 | < 100 | 100 to 1000 | < 100 | < 100 | – | – | – | – | – | – |
| CCN(c1nc(OC[C@@]23CCCN2C[C@H](F)C3)nc2c(F)c(-c3ccc(F)c4sc(N)c(C#N)c34)c(C(F)(F)F)cc12)[C@H]1CCN(C(=O)COC)C1 (atropisomer, axis not shown) [Compound 561] | < 100 | < 100 | < 100 | < 100 | < 100 | < 100 | – | – | – | – | – | – |
| CCN(c1nc(OC[C@@]23CCCN2C[C@H](F)C3)nc2c(F)c(-c3ccc(F)c4sc(N)c(C#N)c34)c(C(F)(F)F)cc12)[C@H]1CCN(C(=O)C(C)(C)C)C1 (atropisomer, axis not shown) [Compound 562] | < 100 | < 100 | 100 to 1000 | < 100 | < 100 | < 100 | – | – | – | – | – | – |
| CC[C@@H](C)C(=O)N1CC[C@H](N(CC)c2nc(OC[C@@]34CCCN3C[C@H](F)C4)nc3c(F)c(-c4ccc(F)c5sc(N)c(C#N)c45)c(C(F)(F)F)cc23)C1 (atropisomer, axis not shown) [Compound 563] | < 100 | 100 to 1000 | 100 to 1000 | 100 to 1000 | < 100 | < 100 | – | – | – | – | – | – |
| CCN(c1nc(OC[C@@]23CCCN2C[C@H](F)C3)nc2c(F)c(-c3ccc(F)c4sc(N)c(C#N)c34)c(C(F)(F)F)cc12)[C@H]1CCN(C(=O)[C@@H](C)OC)C1 (atropisomer, axis not shown) [Compound 570] | – | – | – | – | – | – | < 100 | < 100 | < 100 | < 100 | < 100 | < 100 |
| CCN(c1nc(OC[C@@]23CCCN2C[C@H](F)C3)nc2c(F)c(-c3ccc(F)c4sc(N)c(C#N)c34)c(C(F)(F)F)cc12)[C@H]1CCN(C(=O)[C@H](C)OC)C1 (atropisomer, axis not shown) [Compound 571] | – | – | – | – | – | – | < 100 | < 100 | < 100 | < 100 | < 100 | < 100 |
| CCN(c1nc(OC[C@@]23CCCN2C[C@H](F)C3)nc2c(F)c(-c3ccc(F)c4sc(N)c(C#N)c34)c(C(F)(F)F)cc12)[C@H]1CCN(C(=O)N2CCC2)C1 (atropisomer, axis not shown) [Compound 574] | – | – | – | – | – | – | < 100 | < 100 | < 100 | < 100 | < 100 | < 100 |
| CCN(c1nc(OC[C@@]23CCCN2C[C@H](F)C3)nc2c(F)c(-c3ccc(F)c4sc(N)c(C#N)c34)c(C(F)(F)F)cc12)[C@H]1CCN(C(=O)C2CCN(C(C)=O)CC2)C1 (atropisomer, axis not shown) [Compound 575] | – | – | – | – | – | – | < 100 | < 100 | < 100 | < 100 | < 100 | < 100 |
| CC[C@H](C)C(=O)N1CC[C@H](N(CC)c2nc(OC[C@@]34CCCN3C[C@H](F)C4)nc3c(F)c(-c4ccc(F)c5sc(N)c(C#N)c45)c(C(F)(F)F)cc23)C1 (atropisomer, axis not shown) [Compound 576] | – | – | – | – | – | – | < 100 | < 100 | 100 to 1000 | < 100 | < 100 | < 100 |
| CCN(c1nc(OC[C@@]23CCCN2C[C@H](F)C3)nc2c(F)c(-c3ccc(F)c4sc(N)c(C#N)c34)c(C(F)(F)F)cc12)[C@H]1CCN(C(=O)C2CCOCC2)C1 (atropisomer, axis not shown) [Compound 578] | – | – | – | – | – | – | < 100 | < 100 | < 100 | < 100 | < 100 | < 100 |
| CCN(c1nc(OC[C@@]23CCCN2C[C@H](F)C3)nc2c(F)c(-c3ccc(F)c4sc(N)c(C#N)c34)c(C(F)(F)F)cc12)[C@H]1CCN(C(=O)C2COC2)C1 (atropisomer, axis not shown) [Compound 580] | – | – | – | – | – | – | < 100 | < 100 | < 100 | < 100 | < 100 | < 100 |
| CCN(C)C(=O)N1CC[C@H](N(CC)c2nc(OC[C@@]34CCCN3C[C@H](F)C4)nc3c(F)c(-c4ccc(F)c5sc(N)c(C#N)c45)c(C(F)(F)F)cc23)C1 (atropisomer, axis not shown) [Compound 582] | – | – | – | – | – | – | < 100 | < 100 | < 100 | < 100 | < 100 | < 100 |
| CCN(c1nc(OC[C@@]23CCCN2C[C@H](F)C3)nc2c(F)c(-c3ccc(F)c4sc(N)c(C#N)c34)c(C(F)(F)F)cc12)[C@H]1CCN(C(=O)N(C)C2CC2)C1 (atropisomer, axis not shown) [Compound 583] | – | – | – | – | – | – | < 100 | < 100 | < 100 | < 100 | < 100 | < 100 |
| CCN(c1nc(OC[C@@]23CCCN2C[C@H](F)C3)nc2c(F)c(-c3ccc(F)c4sc(N)c(C#N)c34)c(C(F)(F)F)cc12)[C@H]1CCN(C(=O)N(C)C(C)C)C1 (atropisomer, axis not shown) [Compound 585] | – | – | – | – | – | – | < 100 | < 100 | < 100 | < 100 | < 100 | < 100 |
| CCN(c1nc(OC[C@@]23CCCN2C[C@H](F)C3)nc2c(F)c(-c3ccc(F)c4sc(N)c(C#N)c34)c(C(F)(F)F)cc12)[C@H]1CCN(C(=O)C(C)(F)F)C1 (atropisomer, axis not shown) [Compound 587] | – | – | – | – | – | – | < 100 | < 100 | < 100 | < 100 | < 100 | < 100 |
| CCN(c1nc(OC[C@@]23CCCN2C[C@H](F)C3)nc2c(F)c(-c3ccc(F)c4sc(N)c(C#N)c34)c(C(F)(F)F)cc12)[C@@H]1C[C@H](C)N(C(=O)C2CC2)C1 (atropisomer, axis not shown) [Compound 588] | – | – | – | – | – | – | 100 to 1000 | 100 to 1000 | 100 to 1000 | 100 to 1000 | < 100 | < 100 |
